# Test results reported in patent US4590275A, “Benzoheterazolo[3,2-a]quinolinium salts” (Commonwealth of Puerto Rico, priority 1983, dated 1986).
# Where two headings read alike, the source gives them in different places.
# Tests used:
# [1] = test system: Herpes simplex virus (HSV-1) infected KB cells; test: Protein synthesis in HSV-1 infected and mock-infected KB cells; type: cell-based; conditions: for inhibition of translation (protein synthesis): infected vs mock-infected KB cells
# Protocol: In addition, herpes simplex virus (HSV-1) infected KB cells and KB mock-infected cells were assayed for protein synthesis in the presence of Ib at different concentrations.
# Screening of antibiotic action on protein synthesis in virus infected cells.
# Herpes simplex virus (HSV-1) infected KB cells and KB mock-infected cells were assayed for protein synthesis in the presence of nitrobenzothiazolo quinolium perchlorate at different concentrations. After infection or mock-infection nitrobenzothiazolo quinolium perchlorate was added at the concentration of 100, 50, 25, 5 and 1.5 μg/ml and incubated for 48 hours.
# After the incubation time, protein synthesis was measured by addition of 0.1 μCi^35 S methionine ([…]; 5.4 mCl/ml) and incubated for 1 hour. After incubation the medium was removed, the reaction stopped and the radioactivity estimated in an Intertechnique liquid scintillation spectrometer.
# The value 100% of control represents 72,484 cpm (mock-infected KB cells).
# HeLa cells = test: Cytotoxic activity in vitro, HeLa cells; type: cell-based
# Protocol: (§1) It appears that structural variations such as replacement of sulfur for oxygen or selenium as well as changes in the electronic nature of the substituents are critical factors in eliciting the inhibitory activity. Since in general satisfactory cytotoxic activity "in vitro" corresponds to good antitumor activity in vivo, the antitumor activity of compound Ib was assessed in mice bearing Ehrlich ascites tumor. A range of doses from 400 mg/kg to 90 mg/kg were tested, each given in a one dose basis, 24 h after tumor implantation. […] Compound Ib was also tested against P388 leukemia in mice.
# (§2) HeLa-229 and KB cells were used for in vitro tissue culture cytotoxicity experiments. Cells were grown in monolayer culture in Difco TC Minimal Medium Eagle and supplemented with 10% foetal calf serum (Flow). Subculturing was performed every 6-7 days. Ehrlich ascites tumor was maintained in serial passages at two week intervals in Albino Swiss mice by intraperitoneal implant.
# (§3) The method was essentially as described in Cancer Chemotherapy Rep. Part 3, 3, 2 (1972); NCl Monograph 45, p. 150. Drugs were always suspended in sterile 0.5% carboxymethyl cellulose. As a positive control 1 μM 6-mercaptopurine was always included.
# Ehrlich ascites tumor = test: Antitumor activity against Ehrlich ascites tumor in mice; type: in vivo, female Albino Swiss mice; conditions: for death of mice: one dose; for T/C: Day 12
# Protocol: as §1, §2
# (§4) The mice used through these experiments were female Albino Swiss mice.
# (§5) Each group consisted of five to six weight matched animals. To begin the antitumor experiment 1×10^6 viable cells (trypan blue exclusion test) were injected ip. Test compounds were suspended in 0.9% (w/v) NaCl solution containing 0.10% (v/v) Tween 80 at the higher concentration. Lower doses were obtained by serial dilutions with 0.9% NaCl and injected ip in a volume of 0.5 ml in a single dose 24 h after implantation of the tumor. Animal body weights were recorded daily during the next 30 days and the survival was followed for the next 60 days. The P388 leukemia assay was performed according to standard protocol, Cancer Chemotherapy Rep.; Part 3, 3, 2 (1972); NCl Monograph 45, p. 150.
# (§6) ^a Average of three tests except when noted.
# (§7) ^b and ^c Assay performed according to procols of NCl.
# (§8) ^d Treatment given ip on Day 1.
# ^f Toxicity = LTS number of toxic deaths/number of treated mice.
# ^g LTS = long term survivors (60 days)/number of treated mice.
# P388 leukemia = test: Antitumor activity against P388 leukemia in mice; type: in vivo
# Protocol: as §1, §4, §5, §6, §7
# 5Fluorouracil was used as control (200 mg/kg/ing).
# as §8
# ^h Median survival time of treated mice/median survival of control
# × 100. Values of T/C 120 denote activity.
# KB cells = test: Cytotoxic activity in vitro, KB cells; type: cell-based; conditions: for IC50: Homo sapiens, KB cells, average of at least three experiments, read-out: ED50 KB
# Protocol: as §1, §2, §3
# P388 murine leukemia = conditions: cited from earlier work
# DNA synthesis = conditions: probably by interacting with A:T base pairs; cited from earlier work
# L1210 murine leukemia = conditions: cited from earlier work
# [2] = Ehrlich ascites, 90 mg/kg ip on Day 1, two test results
# [3] = Ehrlich ascites, 100 mg/kg ip on Day 1, two test results
# [4] = Ehrlich ascites, 150 mg/kg ip on Day 1
# [5] = Ehrlich ascites, 200 mg/kg ip on Day 1
# [6] = Ehrlich ascites, 250 mg/kg ip on Day 1
# [7] = Ehrlich ascites, 400 mg/kg ip on Day 1
smiles,measurement,setting,value
"O=[N+]([O-])c1ccc2c(ccc3sc4ccccc4[n+]32)c1.[O-][Cl+3]([O-])([O-])[O-] [Ib, 3-Nitrobenzothiazolo(3,2-a)quinolinium Perchlorate]",virus yield,[1],drastic reduction on virus yield
same,virus yield,"[1]; 5×10^-4 M, 48 hours",drastic reduction on virus yield
same,inhibition of translation (protein synthesis),"[1]; 5×10^-4 M, 48 hours",inhibited preferentially translation on infected cells
same,inhibition of translation (protein synthesis),[1],inhibited preferentially translation on infected cells
same,"cytotoxicity, ranking among compounds I",HeLa cells; HeLa screen,highest cytotoxicity
same,IC50,"HeLa cells; Homo sapiens, HeLa cells, average of at least three experiments, read-out: ED50 HeLa",0.9 µg/mL
same,death of mice,Ehrlich ascites tumor; 300 mg/kg,died within 24 h of injection
same,death of mice,Ehrlich ascites tumor; 400 mg/kg,died within 24 h of injection
same,T/C,Ehrlich ascites tumor; [2],57.3%
same,"LTS, long term survivors (60 days)/number of treated mice",Ehrlich ascites tumor; [2],5/10
same,Survival,Ehrlich ascites tumor; [2],3/5
same,T/C,Ehrlich ascites tumor; [3],35.8%
same,"LTS, long term survivors (60 days)/number of treated mice",Ehrlich ascites tumor; [3],12/12
same,Survival,Ehrlich ascites tumor; [3],6/6
same,"LTS, long term survivors (60 days)/number of treated mice",Ehrlich ascites tumor; [4],15/18
same,Survival,Ehrlich ascites tumor; [4],6/6
same,T/C,Ehrlich ascites tumor; [4],-0.4%
same,"LTS, long term survivors (60 days)/number of treated mice",Ehrlich ascites tumor; [5],18/18
same,Survival,Ehrlich ascites tumor; [5],6/6
same,T/C,Ehrlich ascites tumor; [5],-6.9%
same,"LTS, long term survivors (60 days)/number of treated mice",Ehrlich ascites tumor; [6],15/18
same,Survival,Ehrlich ascites tumor; [6],6/6
same,T/C,Ehrlich ascites tumor; [6],-2.5%
same,Survival,Ehrlich ascites tumor; [7],0/6
same,Toxicity (toxic deaths/number of treated mice),Ehrlich ascites tumor; [7],6/6
same,T/C value,"Ehrlich ascites tumor; Ehrlich ascites, most effective dose 200 mg/kg, one dose 24 h after tumor implantation",-6.2
same,Survival,P388 leukemia; 200 mg/kg ip on Day 1,6/6
same,T/C (median survival time of treated mice/median survival of control × 100),"P388 leukemia; 200 mg/kg ip on Day 1, values of T/C 120 denote activity",218
same,Survival,P388 leukemia; 400 mg/kg ip on Day 1,0/6
same,Toxicity,P388 leukemia; 400 mg/kg ip on Day 1,6/6
same,IC50,KB cells,0.61 µg/mL
same,"cytotoxicity, ranking among compounds I",KB cells; KB screen,highest cytotoxicity
COc1cc2c[n+](C)c3c4cc5c(cc4ccc3c2cc1OC)OCO5 [nitidine],antitumor activity,P388 murine leukemia,potent antitumor activity
same,inhibition of DNA synthesis,DNA synthesis,inhibit DNA synthesis
same,antitumor activity,L1210 murine leukemia,potent antitumor activity
COc1cc2c(ccc3c4cc(OC)c(OC)cc4c[n+](C)c23)cc1O [fagaronine],antitumor activity,P388 murine leukemia,potent antitumor activity
same,inhibition of DNA synthesis,DNA synthesis,inhibit DNA synthesis
same,antitumor activity,L1210 murine leukemia,potent antitumor activity
COc1cc2cc3c4cc(OC)c(OC)cc4cc[n+]3c(C)c2cc1OC [Coralyne],antitumor activity,P388 murine leukemia,exhibits antitumor activity
same,antitumor activity,L1210 murine leukemia,exhibits antitumor activity
"O=[N+]([O-])c1ccc2c(ccc3[se]c4ccccc4[n+]32)c1.[O-][Cl+3]([O-])([O-])[O-] [Il, 3-Nitrobenzoselenazolo(3,2-a)quinolinium Perchlorate]",IC50,KB cells,100 µg/mL
